Measured values: US20240150356A1, “Pyrimidine amide compounds and use thereof” (ALPHALA CO., LTD., priority 2019, published 2024)
Like-named read-outs stand apart in the source and are kept apart here.

What was measured:
Type in all cases: cell-based
[1] = test system: Hep3B cells (hepatocellular carcinoma cell line); assay: In vitro MTS cell viability assay (NCI-60 methodology), Hep3B; details: Homo sapiens, 48 h, 2 days drug incubation, 50% reduction vs time zero, read-out: Hep3B LC50
How it was run: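 Following NCI-60 method, MTS viability of Hep3B measured 24 h after plating (time zero) and after a further 2-day exposure to five concentrations (2-fold series). LC50 defined where [(Ti−Tz)/Tz]×100 = −50.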

[2] = test system: SW480 (colon adenocarcinoma cell line); assay: In vitro MTS cell viability assay (NCI-60 methodology), SW480; details: Homo sapiens, SW480 cells, read-out: SW480 LC50
Experimental: (§1) The cell viability measurement is based on the NCI-60 screening methodology (Nat. Rev. Cancer 6, 813-823, 2006). Briefly, cells are inoculated into 96-well plates at the optimal plating density. After 24 h, one of the two plates for Hep3B cell line is processed to determine a time zero cell viability (Tz) by MTS assay (Promega). Compounds are added over a 2-fold serial dilution to provide a total five drug concentrations plus DMSO control. Plates are incubated for a further 2 days, then measured cell viability by MTS assay [control growth (C) and test growth in the presence of drug at the five concentration levels (Ti)]. The LC50 is calculated from [(Ti−Tz)/Tz]×100=−50, which is the drug concentration resulting in a 50% reduction at the end of the drug treatment as compared to that at the beginning.
(§2) The compounds prepared in Tables 1-10 were tested in three in vitro assays, and the results are shown in Tables 1-10 for Hep3B and Table 11 for SW480 and NCI-H460 shown below. Herein, Hep3B refers to hepatocellular carcinoma cell line, SW480 refers to colon adenocarcinoma cell line, and NCI-H460 refers to human lung cancer cell line.
(§3) Shown in Tables 11 are in vitro activities of exemplary compounds of formula (I).

[3] = test system: NCI-H460 (human lung cancer cell line); assay: In vitro MTS cell viability assay (NCI-60 methodology), NCI-H460; details: NCI-H460 cells, read-out: NCI-H460 LC50
Experimental: as §1, §2, §3

Row | Compound | LC50 ([1]; Table 6, MTS) [nM] | CC50 [2] [nM] | CC50 [3] [nM] | LC50 ([1]; Table 5, MTS) [nM] | LC50 ([1]; Table 10, MTS) [nM] | LC50 ([1]; Table 7, MTS) [nM] | LC50 ([1]; Table 1, MTS) [nM] | LC50 ([1]; Table 4, MTS) [nM]
1 | CC(C)(C)c1ccc(-n2ncc3c(NC(=O)c4ccc([N+](=O)[O-])s4)nc(N4CCC[C@H]4CO)nc32)cc1 [Compound 6-71, (S)—N-(1-(4-(tert-butyl)phenyl)-6-(2-(hydroxymethyl)pyrrolidin-1-yl)-1H-pyrazolo[3,4-d]pyrimidin-4-yl)-5-nitrothiophene-2-carboxamide] | 280 | 980 | 440 | – | – | – | – | –
2 | O=C(Nc1nc(-c2ccc(C(F)(F)F)cc2)nc2c1cnn2-c1ccccc1)c1ccc([N+](=O)[O-])s1 [Compound 5-39, 5-nitro-N-(1-phenyl-6-(4-(trifluoromethyl)phenyl)-1H-pyrazolo[3,4-d]pyrimidin-4-yl)thiophene-2-carboxamide] | – | > 10000 | 1250 | 320 | – | – | – | –
3 | COC(=O)c1ccc(-c2nc(NC(=O)c3ccc([N+](=O)[O-])s3)c3cnn(C4CCCCC4)c3n2)cc1 [Compound 10-32, methyl 4-(1-cyclohexyl-4-(5-nitrothiophene-2-carboxamido)-1H-pyrazolo[3,4-d]pyrmidin-6-yl)benzoate] | – | 1210 | 1720 | – | 400 | – | – | –
4 | CN(C)CCOc1nc(NC(=O)c2ccc([N+](=O)[O-])s2)c2cnn(-c3ccc(C(C)(C)C)cc3)c2n1 [Compound 6-58, N-(1-(4-(tert-butyl)phenyl)-6-(2-(dimethylamino)ethoxy)-1H-pyrazolo[3,4-d]pyrimidin-4-yl)-5-nitrothiophene-2-carboxamide] | 690 | 4090 | 3970 | – | – | – | – | –
5 | O=C(Nc1nc(-c2ccc(F)c(F)c2)nc2c1cnn2C1CCCCC1)c1ccc([N+](=O)[O-])s1 [Compound 10-40, N-(1-cyclohexyl-6-(3,4-difluorophenyl)-1H-pyrazolo[3,4-d]pyrimidin-4-yl)-5-nitrothiophene-2-carboxamide] | – | 1040 | 1160 | – | 320 | – | – | –
6 | O=C(Nc1nc(-c2ccc(Cl)cc2)nc2c1cnn2-c1ccc(C(F)(F)F)cn1)c1ccc([N+](=O)[O-])s1 [Compound 7-3, N-(6-(4-chlorophenyl)-1-(5-(trifluoromethyl)pyridin-2-yl)-1H-pyrazolo[3,4-1]pyrimidin-4-yl)-5-nitrothiophene-2-carboxamide] | – | 530 | 400 | – | – | 130 | – | –
7 | O=C(Nc1nc(-c2ccc(OCC(F)(F)C(F)F)nc2)nc2c1cnn2-c1ccccc1)c1ccc([N+](=O)[O-])s1 [Compound 5-56, 5-nitro-N-(1-phenyl-6-(6-(2,2,3,3-tetrafluoropropoxy)pyridin-3-yl)-1H-pyrazolo[3,4-d]pyrimidin-4-yl)thiophene-2-carboxamide] | – | 730 | 1100 | 400 | – | – | – | –
8 | O=C(Nc1nc(-c2cncnc2)nc2c1cnn2-c1ccc(F)cc1)c1ccc([N+](=O)[O-])s1 [Compound 6-112, N-(1-(4-fluorophenyl)-6-(pyrimidin-5-yl)-1H-pyrazolo[3,4-d]pyrimidin-4-yl)-5-nitrothiophene-2-carboxamide] | 220 | 810 | 970 | – | – | – | – | –
9 | O=C(Nc1nc(-c2ccc(F)c(F)c2)nc2c1cnn2-c1ccc(F)cc1)c1ccc([N+](=O)[O-])s1 [Compound 6-125, N-(6-(3,4-difluorophenyl)-1-(4-fluorophenyl)-1H-pyrazolo[3,4-d]pyrimidin-4-yl)-5-nitrothiophen-2-carboxamide] | 100 | 2280 | 350 | – | – | – | – | –
10 | O=C(Nc1nc(-c2ccc(F)nc2)nc2c1cnn2C1CCC(F)(F)CC1)c1ccc([N+](=O)[O-])s1 [Compound 10-55, N-(1-(4,4-difluorocyclohexyl)-6-(6-fluoropyridin-3-yl)-1H-pyrazolo[3,4-d]pyrimidin-4-yl)-5-nitrothiophene-2-carboxamide] | – | 1060 | 940 | – | 710 | – | – | –
11 | COc1nc(NC(=O)c2ccc([N+](=O)[O-])s2)c2cnn(-c3ccc(C(C)(C)C)cc3)c2n1 [Compound 6-57, N-(1-(4-(tert-butyl)phenyl)-6-methoxy-1H-pyrazolo[3,4-d]pyrimidin-4-yl)-5-nitrothiophene-2-carboxamide] | 700 | 1240 | 2750 | – | – | – | – | –
12 | CC(C)n1ncc2c(NC(=O)c3ccc([N+](=O)[O-])s3)nc(-c3ccc(OC(F)(F)F)cc3)nc21 [Compound 1-22, N-(1-isopropyl-6-(4-(trifluoromethoxy)phenyl)-1H-pyrazolo[3,4-d]pyrimidin-4-yl)-5-nitrothiophene-2-carboxamide] | – | 5380 | 2180 | – | – | – | 730 | –
13 | O=C(Nc1nc(-c2ccc(F)cc2)nc2c1cnn2-c1cccc(Cl)c1)c1ccc([N+](=O)[O-])s1 [Compound 6-35, N-(1-(3-chlorophenyl)-6-(4-fluorophenyl)-1H-pyrazolo[3,4-d]pyrimidin-4-yl)-5-nitrothiophene-2-carboxamide] | 110 | 520 | 500 | – | – | – | – | –
14 | O=C(Nc1nc(-c2ccccc2)nc2c1cnn2-c1ccc(F)cc1)c1ccc([N+](=O)[O-])s1 [Compound 6-110, N-(1-(4-fluorophenyl)-6-phenyl-1H-pyrazolo[3,4-d]pyrimidin-4-yl)-5-nitrothiophene-2-carboxamide] | 230 | 1250 | 1410 | – | – | – | – | –
15 | O=C(Nc1nc(-c2ccc(F)nc2)nc2c1cnn2C1CCCCC1)c1ccc([N+](=O)[O-])s1 [Compound 10-14, N-(1-cyclohexyl-6-(6-fluoropyridin-3-yl)-1H-pyrazolo[3,4-d]pyrimidin-4-yl)-5-nitrothiophene-2-carboxamide] | – | 1710 | 910 | – | 890 | – | – | –
16 | Cc1csc2c(NC(=O)c3ccc([N+](=O)[O-])s3)nc(-c3cccc(OC(F)(F)F)c3)nc12 [Compound 4-5, N-(7-methyl-2-(3-(trifluoromethoxy)phenyl)thieno[3,2-d]pyrimidin-4-yl)-5-nitrothiophene-2-carboxamide] | – | 3510 | 2450 | – | – | – | – | 790
17 | CCOC[C@@H]1CCCN1c1nc(NC(=O)c2ccc([N+](=O)[O-])s2)c2cnn(-c3ccc(F)cc3)c2n1 [Compound 6-104] | 380 | 650 | 860 | – | – | – | – | –
18 | O=C(Nc1nc(-c2ccc(F)cc2F)nc2c1cnn2-c1ccccc1)c1ccc([N+](=O)[O-])s1 [Compound 5-45, N-(6-(2,4-difluorophenyl)-1-phenyl-1H-pyrazolo[3,4-d]pyrimidin-4-yl)-5-nitrothiophene-2-carboxamide] | – | 1110 | 2180 | 440 | – | – | – | –
19 | O=C(Nc1nc(-c2ccc(F)nc2)nc2c1cnn2-c1ccccc1)c1ccc([N+](=O)[O-])s1 [Compound 5-28, N-(6-(6-fluoropyridin-3-yl)-1-phenyl-1H-pyrazolo[3,4-d]pyrimidin-4-yl)-5-nitrothiophene-2-carboxamide] | – | 590 | 280 | 130 | – | – | – | –
20 | O=C(Nc1nc(-c2ccc(F)cc2)nc2c1cnn2-c1cccc(F)c1)c1ccc([N+](=O)[O-])s1 [Compound 6-89, N-(1-(3-fluorophenyl)-6-(4-fluorophenyl)-1H-pyrazolo[3,4-d]pyrimidin-4-yl)-5-nitrothiophene-2-carboxamide] | 120 | 810 | 710 | – | – | – | – | –
21 | Cc1csc2c(NC(=O)c3ccc([N+](=O)[O-])s3)nc(-c3ccc(C(F)(F)F)cc3)nc12 [Compound 4-2, N-(7-methyl-2-(4-(trifluoromethyl)phenyl)thieno[3,2-d]pyrimidin-4-yl)-5-nitrothiophene-2-carboxamide] | – | 10100 | 1650 | – | – | – | – | 970
22 | CCOCCOCCOc1ccc(-c2nc(NC(=O)c3ccc([N+](=O)[O-])s3)c3cnn(-c4ccc(Cl)cc4)c3n2)cn1 [Compound 6-53, N-(1-(4-chlorophenyl)-6-(6-(2-(2-ethoxyethoxy)ethoxy)pyridin-3-yl)-1H-pyrazolo[3,4-d]pyrimidin-4-yl)-5-nitrothiophene-2-carboxamide] | 130 | 1040 | 1090 | – | – | – | – | –
23 | COC(=O)[C@@H]1CCCN1c1nc(NC(=O)c2ccc([N+](=O)[O-])s2)c2cnn(-c3ccc(C(C)(C)C)cc3)c2n1 [Compound 6-69, methyl(1-(4-(tert-butyl)phenyl)4-(5-nitrothiophene-2-carboxamido)-1H-pyrazolo[3,4-d]pyrimidin-6-yl)-L-prolinate] | 440 | 890 | 2760 | – | – | – | – | –
